Experimental data: PMC7174661, “Patch-Clamp Analysis of the Mitochondrial H^+ Leak in Brown and Beige Fat” (Frontiers in Physiology, 2020)

Molecular target: T1, UCP1 (Mus musculus, UniProt P12242)
T1 construct: native full-length protein in the inner mitochondrial membrane; mitoplasts from brown (or beige) fat; no tags
T1 sequence (P12242 1-307): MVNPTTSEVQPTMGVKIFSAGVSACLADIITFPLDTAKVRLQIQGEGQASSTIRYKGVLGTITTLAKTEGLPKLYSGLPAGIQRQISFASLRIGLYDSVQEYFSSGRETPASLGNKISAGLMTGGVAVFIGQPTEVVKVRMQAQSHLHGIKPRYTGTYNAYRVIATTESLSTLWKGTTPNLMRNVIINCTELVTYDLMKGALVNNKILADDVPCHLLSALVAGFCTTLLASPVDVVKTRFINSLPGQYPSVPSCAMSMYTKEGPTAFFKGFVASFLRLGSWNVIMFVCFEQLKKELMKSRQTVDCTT
Assay: whole-mitoplast patch-clamp, inhibition of H+ current
Type: biochemical
Conditions: Mg2+-free ATP, cytosolic side; current activated by 0.2 mM oleic acid / 10 mM MβCD; symmetrical pH 7.0; competitive with fatty acid; figure reproduced from the same laboratory's Fedorenko et al. 2012

Nc1ncnc2c1ncn2[C@@H]1O[C@H](COP(=O)(O)OP(=O)(O)OP(=O)(O)O)[C@@H](O)[C@H]1O [ATP]
IC50: 2100 ± 100 nM
